The source of these data is article PMC8774489, “[(WR)8WKβA]-Doxorubicin Conjugate: A Delivery System to Overcome Multi-Drug Resistance against Doxorubicin” (Cells, 2022).

Data set [1] deals with MCF-7 cells. The experiment in a line: In vitro cytotoxicity (MTS) assay in MCF-7 cells. It is filed as cell-based, human. As to conditions: for reduction of MCF-7 cell proliferation: mean n = 3. The protocol:
(§1) The incubation was continued for 3 h.

Data set [2] deals with MES-SA/MX2 cells. Description: In vitro cytotoxicity (MTS) assay in Dox-resistant MES-SA/MX2 cells. It counts as cell-based. As for the experimental part:
as §1

The subject of data set [3] is K562/ADR (human erythroleukemic cells). Further details: method as in PMID 11261883. As to conditions: resistant K562/ADR cells; cited from earlier work. The text has this:
Different linear CPPs such as penetratin [15], TAT [18], polyarginine, and maurocalcine have been conjugated with Dox.

The subject of data set [4] is MDA-MB-231 cells. It is filed as cell-based, human. Particulars: MTS; for MDA-MB-231 cell viability: 5 µM, mean n = 3. The protocol:
as §1

For data set [5], the system named is SK-OV-3 cells. It counts as cell-based, human. Particulars: 5 µM, 72 h, MTS, mean n = 3. The protocol:
as §1

Data set [6] has as its system H9C2 cells. The experiment in a line: Confocal microscopy uptake in H9C2 heart cells. It is filed as cell-based, rat. As to conditions: H9C2, 5 µM (mixture: Dox 5 µM with [WR]9 5 or 10 µM), 24 h. The protocol: (§2) MDA-MB-231, SK-OV-3, MES-SA/MX2, and H9C2 cells (7 × 10^4 cells/well) were seeded with a medium on a coverslip 24 h prior to the experiment in six well plates. After 24 h, the medium was changed with opti-MEM. The cells were treated with Dox and peptide-Dox conjugate (5 μM) in opti-MEM for 24 h. After 24 h incubation, the media were removed, and cells were washed three times with PBS in each well. Then, the cells were fixed with 3.7% formaldehyde for 10 min, followed by washing three times with PBS for 5 min (pH 7.6). DAPI (40 µL) for staining the nuclei was placed on a microscope slide, and it was covered with the coverslip with the cell-attached side facing down. The slides were left standing horizontally in a dark place with airflow to allow drying faster. The cells were photographed using Nikon Instruments A1 Confocal Laser Microscope Series (Nikon Instruments Inc, NY, USA) and NIS-Elements software (AR 4.30.02, 64 bit). The scan mode was selected as Galvano. The magnification and resolution were set at 40× and 1024, respectively.

Data set [7] has as its system H9C2 myocardium cells. Particulars: 24 h, MTS, n = 3. The protocol: The cells were seeded in a complete growth medium 24 h prior to the experiment. […] The incubation was continued for 3 h.
Data set [8] can be described thus: in vitro. As to conditions: human, 25% human serum.
Protocol: Human serum (250 μL) was diluted by adding sterile water (650 μL) and conjugate stock solution (100 μL) to give a sample with 25% human serum and 5 μM conjugate. The sample was kept at 37 °C in an incubator to mimic human body temperature. At regular time intervals, aliquots (100 μL) were taken and diluted with methanol (200 μL). After centrifugation (7000 RPM) of the mixture for 10 min, the supernatant was analyzed by analytical HPLC at 495 nm, and the major HPLC peaks were analyzed by mass spectrometry. The mobile phase used was acetonitrile/water with 0.1% TFA, with a gradient of 20–45% and a flow rate of 1 mL/min in 50 min. The percentage of intact conjugate and the release of the free drug were plotted against incubation time. The AUC obtained after each run was used to confirm the conjugate’s degradation, and t1/2 (the time needed to hydrolyze half of the initial conjugate in human serum) was calculated from the graph plotted as AUC versus incubation time.
Data set [9] concerns MES-SA/MX2 cells. The experiment in a line: FACS cellular uptake with endocytosis inhibitors in MES-SA/MX2 cells. As to conditions: MES-SA/MX2, conjugate 5 µM, 3 h, flow cytometry, n = 3. It counts as cell-based. A general note: Flow cytometry measures light scatter and fluorescence of single cells or particles in a stream.
Data set [10] concerns SK-OV-3 cells. Description: Confocal microscopy uptake and retention in SK-OV-3 cells. Particulars: SK-OV-3, 5 μM, 3 h then 24 h in media. It is filed as cell-based, human. The protocol: as §2, with “The cells were treated with Dox and peptide-Dox conjugate (5 μM) in opti-MEM for 24 h.” left out
Data set [11] concerns MES-SA/MX2 cells. Description: Confocal microscopy internalization in MES-SA/MX2 cells. Particulars: MES-SA/MX2, 5 μM, 24 h. It counts as cell-based. As for the experimental part:
as §2

The test system of data set [12] is MDA-MB-231 cells. The experiment in a line: Differential nuclear and cytoplasmic extraction of Dox, HPLC. Particulars: 50 μM, 4 h exposure, MDA-MB-231, nuclear extract, HPLC at 490 nm. It counts as cell-based, human. The protocol:
In order to confirm nuclear delivery of peptide-conjugated Dox, in addition to confocal microscopy, we performed a differential nuclear and cytoplasmic extraction. […] The cells were then pelleted at 2000 rpm for 5 min. After removing the supernatant, the cells were resuspended in Dounce buffer containing protease inhibitors. The cell suspension to be used was incubated on ice for 15 min before being spiked with cold 10% NP-40 and vortexed for 10 s. The suspension was centrifuged at 10,000 rpm for 10 min at 4 °C to pellet the nuclei. The supernatant was isolated for cytoplasmic extraction. The nuclear pellet was washed in cold PBS twice and centrifuged to remove the supernatant. The isolated nuclei were then lysed using RIPA buffer containing protease inhibitors. The nuclear and cytoplasmic extractions were analyzed by analytical HPLC to differentially quantify free Dox (or Dox released from the conjugates) and peptide-conjugate Dox using an Agilent Zorbax SB-C18 (4.6 × 150 mm) column. The column was equilibrated with 0.1% TFA-water (solvent A). The elution was performed at a flow rate of 1 mL/min using a gradient of acetonitrile from 0 to 35% in 50 min, with the absorbance measured at 490 nm.

The subject of data set [13] is CCRF-CEM cells. As to conditions: conjugate 5 μM for 4 h at 37 °C, then drug-free medium, HPLC AUC.
Protocol: Intracellular hydrolysis of [(WR)8WKβA]-Dox and accumulation of free Dox and the peptide–Dox conjugate were determined in CCRF-CEM cells by HPLC analysis. Cells were grown with serum-free RPMI medium in 75 cm^2 culture flasks to ∼70–80% confluence (1.37 × 10^7 cells/mL). The medium was first replaced with fresh RPMI medium having [(WR)8WKβA]-Dox conjugate (5 μM). Then the cells were incubated for 4 h at 37 °C. After 4 h, the medium containing the conjugate was aspirated, and cells were washed three times with PBS before adding a fresh serum-free medium. The cells were first partitioned/transferred to culture plates (six wells) contained 1.37 × 10^7 cells per well in 5 mL of medium, then incubated for the indicated time. After incubation, the cells were collected using centrifugation. After centrifugation, the medium was removed by decantation. The cell pellets were washed with ice-cold PBS to remove any remaining medium. The cell pellets were then completely extracted with an equal volume of methanol, chloroform, and isopropanol mixture (4:3:1 v/v/v) and finally filtered through 0.2 μm filters. The relative amount of Dox and [(WR)8WKβA]-Dox concentrations in cell lysates were quantified by analytical HPLC using the water/acetonitrile solvent.
Data set [14] relates to MDA-MB-231 cells. The experiment in a line: FACS cellular uptake with endocytosis inhibitors in MDA-MB-231 cells. It counts as cell-based, human. Particulars: MDA-MB-231, conjugate 5 µM, 3 h, flow cytometry, n = 3. The protocol:
A flow cytometry study was conducted in the presence of endocytosis inhibitors such as nystatin, chlorpromazine, chloroquine, and methyl β-cyclodextrin to determine whether the cellular uptake for the peptide-Dox was endocytosis-dependent. MDA-MB-231 (5 × 10^5 cells/well) were seeded in the medium 24 h prior to the experiment in six well plates, and after 24 h the medium was changed with opti-MEM. […] The cells were then incubated with [(WR)8WKβA]-Dox conjugate (5 µM) in the presence of inhibitors for 3 h. After 3 h incubation, the media containing the compounds were removed. Next, the cells were digested with 0.05% trypsin/EDTA (0.53 mM) for 5 min to remove any artificial surface binding, centrifuged at 2500 RPM for 5 min with Fisher Scientific accuSpin Micro 17, and then collected as the precipitant. Then the cells were washed two times with PBS, resuspended in flow cytometry buffer, and transferred to the flow cytometry tubes through the 35 µm Strainer Mesh cap. Finally, the cells were analyzed by flow cytometry (FACSCalibur: Becton Dickinson, San Jose, CA, USA) using the Propidium Iodide channel and CellQuest software. The data presented were based on the mean fluorescence intensity for 10,000 cells collected. All assays were performed in triplicate.

For data set [15] the following is noted: molecular transporter of fluorescence-labeled phosphopeptide; cited from earlier work. The text has this: Recently, we have reported amphiphilic cyclic CPPs composed of increasing numbers of W and R residues [WR]6–9, and compared their efficiency with the previously published cyclic [WR]5 in improving the cellular uptake of cell-impermeable compounds and their molecular transporter efficiency.

The mark [16] stands for this setting: chlorpromazine 30 μM, methyl-β-cyclodextrin 2.5 mM.

Read-outs that look alike come from different tables or passages of the source. Peptide text beside a SMILES is read from it.

For `COc1cccc2c1C(=O)c1c(O)c3c(c(O)c1C2=O)C[C@@](O)(C(=O)CO)C[C@@H]3O[C@H]1C[C@H](N)[C@H](O)[C@H](C)O1` [Dox, Doxorubicin], the “reduction of MCF-7 cell proliferation” value in data set [1] (5 µM, 24 h) was determined as 21%; in data set [1] (5 µM, 72 h), 57%. In addition, the “inhibition of MES-SA/MX2 cell viability / proliferation” value in data set [2] (5 μM, 72 h) was found to be 15%. The “efficiency of free Dox against MES-SA/MX2” value in data set [2] (1, 5, 10 or 20 µM) is “did not show significant efficiency”. Besides, in data set [3], the IC50 is 65 ± 7 µM. The MDA-MB-231 cell viability was determined as 79% in [4] (24 h) and 37% in [4] (72 h). In addition, the “inhibition of MDA-MB-231 cell viability / proliferation” value in data set [4] (5 μM, 72 h) is given as 63%. The “reduction of SK-OV-3 cell viability” value in data set [5] was 35%. Further, the “uptake in heart cells by confocal microscopy” value in data set [6] was “high uptake”.
`COc1cccc2c1C(=O)c1c(O)c3c(c(O)c1C2=O)C[C@@](O)(C(=O)COC(=O)CCCC(=O)NCCC(=O)NCCCC[C@@H]1NC(=O)[C@H](Cc2c[nH]c4ccccc24)NC(=O)[C@H](CCCNC(=N)N)NC(=O)[C@H](Cc2c[nH]c4ccccc24)NC(=O)[C@H](CCCNC(=N)N)NC(=O)[C@H](Cc2c[nH]c4ccccc24)NC(=O)[C@H](CCCNC(=N)N)NC(=O)[C@H](Cc2c[nH]c4ccccc24)NC(=O)[C@H](CCCNC(=N)N)NC(=O)[C@H](Cc2c[nH]c4ccccc24)NC(=O)[C@H](CCCNC(=N)N)NC(=O)[C@H](Cc2c[nH]c4ccccc24)NC(=O)[C@H](CCCNC(=N)N)NC(=O)[C@H](Cc2c[nH]c4ccccc24)NC(=O)[C@H](CCCNC(=N)N)NC(=O)[C@H](Cc2c[nH]c4ccccc24)NC(=O)[C@H](CCCNC(=N)N)NC(=O)[C@H](Cc2c[nH]c4ccccc24)NC1=O)C[C@@H]3O[C@H]1C[C@H](N)[C@H](O)[C@H](C)O1` [[(WR)8WKβA]-Dox conjugate] (HELM PEPTIDE1{K.W.R.W.R.W.R.W.R.W.R.W.R.W.R.W.R.W}|PEPTIDE2{[COc1cccc2c1C(=O)c1c(O)c3c(c(O)c1C2=O)C[C@@](O)(C(=O)COC(=O)CCCC(=O)[*:2])C[C@@H]3O[C@H]1C[C@H](N)[C@H](O)[C@H](C)O1].[bAla]}$PEPTIDE1,PEPTIDE2,1:R3-2:R2|PEPTIDE1,PEPTIDE1,1:R1-18:R2$$$V2.0): the “reduction of MCF-7 cell proliferation” value in data set [1] (1 µM, 24 h) is 28%; in data set [1] (1 µM, 72 h), 70%; in data set [1] (5 µM, 24 h) it was 55%; in [1] (10 µM, 24 h), 56%; in [1] (10 µM, 72 h) it was 77%. The “cytotoxicity in rat H9C2 myocardium cells” value is “comparable to Dox” in [7] (10 µM); “no significant cytotoxicity” in [7] (1 and 5 µM). In addition, in data set [8], the metabolised at 1 h, 5 µM worked out at 7%. This compound registered a metabolised at 6 h, 5 µM in data set [8] of approximately 50%. Besides, the metabolised at 12 h, 5 µM in data set [8] was more than 80%. The amount remaining at 24 h, 5 µM in data set [8] was 6%. Moreover, the “uptake reduction in presence of chlorpromazine and methyl-β-cyclodextrin” value in data set [9] (setting [16]) is given as “statistically significant”. In addition, the “cellular uptake in presence of nystatin and chloroquine” value in data set [9] (nystatin 50 μg/mL, chloroquine 100 μM) was “not reduced significantly”; in [14] (nystatin 50 μg/mL, chloroquine 100 μM, 30 min preincubation) it was “not reduced significantly”. Also, the “cellular uptake, retention and localization of Dox” value in data set [10] was “increased the cellular uptake and retention of Dox”. In data set [11], the “internalization into resistant cells overexpressing P-gp” value was “internalized”. Further, the “total concentration of Dox (conjugated and released) in the nucleus” value in [12] is on record as “higher than free Dox”. Further, the “free Dox released intracellularly” value in data set [13] (within 12 h) is recorded as “More than 36%”; in data set [13] (within 72 h), “approximately 100%”. The “cellular uptake in presence of chlorpromazine and methyl-β-cyclodextrin” value in [14] (setting [16]) is listed as “slight uptake reduction”. The “uptake in heart cells by confocal microscopy” value in data set [6] is recorded as “did not show any significant uptake”.
For `N=C(N)NCCC[C@@H]1NC(=O)[C@H](Cc2c[nH]c3ccccc23)NC(=O)[C@H](CCCNC(=N)N)NC(=O)[C@H](Cc2c[nH]c3ccccc23)NC(=O)[C@H](CCCNC(=N)N)NC(=O)[C@H](Cc2c[nH]c3ccccc23)NC(=O)[C@H](CCCNC(=N)N)NC(=O)[C@H](Cc2c[nH]c3ccccc23)NC(=O)[C@H](CCCNC(=N)N)NC(=O)[C@H](Cc2c[nH]c3ccccc23)NC(=O)[C@H](CCCNC(=N)N)NC(=O)[C@H](Cc2c[nH]c3ccccc23)NC(=O)[C@H](CCCNC(=N)N)NC(=O)[C@H](Cc2c[nH]c3ccccc23)NC(=O)[C@H](CCCNC(=N)N)NC(=O)[C@H](Cc2c[nH]c3ccccc23)NC(=O)[C@H](CCCNC(=N)N)NC(=O)[C@H](Cc2c[nH]c3ccccc23)NC1=O` [[WR]9] (HELM PEPTIDE1{R.W.R.W.R.W.R.W.R.W.R.W.R.W.R.W.R.W}$PEPTIDE1,PEPTIDE1,1:R1-18:R2$$$V2.0), the “effect of [WR]9 alone on MCF-7 cell survival” value in data set [1] (different concentrations (1, 5, 10 μM)) is on record as “no significant effect on cell survival”. Besides, the “antiproliferative effect of [WR]9 alone on MES-SA/MX2” value in data set [2] (24 and 72 h) is “no significant antiproliferative effect”. Also, the “enhancement of cellular uptake of F′-GpYEEI” value in [15] is 20 fold.

For orientation: IC50 means the concentration that inhibits the measured activity by half. For orientation: share remaining means the share of the starting amount still present when the sample was taken.
